Data taken from patent US6413938B1, “Benzimidazole derivatives for the treatment of viral infections” (The Regents of the University of Michigan, priority 1997, dated 2002).

Tests used:
[1] = system: HCMV strain AD169; assay: Human Cytomegalovirus Assay; type: cell-based; conditions: Human betaherpesvirus 5, 120 h; HCMV strain AD169 on MRC5 cell monolayers, 5 days, HCMV DNA by blotting and hybridization
Description: HCMV strain AD169 was grown on monolayers of human embryonic lung cells (MRC5 cells) in 96 well plates. After infection of the cells at a ratio of approximately 0.01 infectious virus particles per cell; the compounds to be tested were added to selected wells at six different concentrations, each in triplicate. The same concentrations of compounds were also applied to wells containing monolayers of uninfected cells in order to assess compound cytotoxicity. The plates were incubated for 5 days, and the minimum cytotoxic dose was estimated from microscopic examination. The IC50 for antiviral effect was estimated from measurements of HCMV DNA in each well by blotting and quantitative specific DNA hybridization, similar to the method of Gadler (Antimicrob. Agents Chemother. 1983, 24, 370-374).

melting point | SMILES | IC50 [1]
133 to 135 °C | C[C@H]1O[C@@H](n2c(Br)nc3cc(Cl)c(Cl)cc32)[C@H](O)[C@@H]1O (hydrate or solvate) [Example 4, 2-Bromo-5,6-dichloro-1-(5-deoxy-beta-D-ribofuranosyl)-1H-benzimidazole] | –
175 to 178 °C | CC(C)Nc1nc2cc(F)c(F)c(F)c2n1[C@@H]1O[C@H](C)[C@@H](O)[C@H]1O [Example 20, 5,6,7-Trifluoro-1-(5-deoxy-beta-D-ribofuranosyl)-N-(1-methylethyl)1H-benzimidazol-2-amine] | –
160 to 162 °C | CC(=O)O[C@@H]1[C@H](OC(C)=O)[C@@H](C)O[C@H]1n1c(Br)nc2c(Cl)c(Cl)c(Cl)cc21 [Example 69, 2-Bromo4,5,6-trichloro-1-(2,3-di-O-acetyl-5-deoxy-beta-D-ribofuranosyl)-1H-benzimidazole] | –
138 to 141 °C | CC(=O)O[C@@H]1[C@H](OC(C)=O)[C@@H](C)O[C@H]1n1c(Cl)nc2c(Br)c(Cl)c(Cl)cc21 [Example 70, 4-Bromo-2,5,6-trichloro-1-(2,3-di-O-acetyl-5-deoxy-beta-D-ribofuranosyl)-1H-benzimidazole] | –
152 to 154 °C | CC(=O)O[C@@H]1[C@H](OC(C)=O)[C@@H](C)O[C@H]1n1c(Br)nc2c(Br)c(Cl)c(Cl)cc21 [Example 71, 2,4-Dibromo-5,6-dichloro-1-(2,3-di-O-acetyl-5-deoxy-beta-D-ribofuranosyl)-1H-benzimidazole] | –
120 to 122 °C | C[C@H]1O[C@H](n2c(Cl)nc3cc(Cl)c(Cl)cc32)[C@@H](O)[C@H]1O [Example 72, 2,5,6-Trichloro-1-(5-deoxy-α-D-lyxofuranosyl)1H-benzimidazole] | –
145 to 148 °C | C[C@H]1O[C@@H](n2c(Br)nc3cc(Cl)c(Cl)cc32)[C@H](O)[C@@H]1O [Example 73, 2-Bromo-5,6-dichloro-1-(5-deoxy-β-D-ribofuranosyl)benzimidazole] | –

The next lines start with the compound.

SMILES | melting point | IC50 [1]
CC(C)Nc1nc2c(Cl)cc(Cl)cc2n1[C@@H]1O[C@H](C)[C@@H](O)[C@H]1O [Example 9, 4,6-Dichloro-1-(5-deoxy-beta-D-ribofuranosyl)-N-(1-methylethyl)-1H-benzimidazol-2-amine] | – | 6.9 µM
CC(C)Nc1nc2c(Cl)c(Cl)ccc2n1[C@@H]1O[C@H](C)[C@@H](O)[C@H]1O [Example 12, 4,5-Dichloro-1-(5deoxy-beta-D-ribofuranosyl)-N-(1-methylethyl)-1H-benzimidazol-2-amine] | – | 3.5 µM
CC(C)Nc1nc2c(F)c(F)c(F)cc2n1[C@@H]1O[C@H](C)[C@@H](O)[C@H]1O [Example 19, 4,5,6-Trifluoro-1-(5-deoxy-beta-D-ribofuranosyl)-N-(1-methylethyl)-1H-benzimidazol-2-amine] | 148 to 151 °C | –
CC(C)Nc1nc2cc(C(F)(F)F)ccc2n1[C@@H]1O[C@H](C)[C@@H](O)[C@H]1O [Example 44, 5-Trifluoromethyl-1-(5-Deoxy-beta-D-ribofuranosyl)-N-(1-methylethyl)-1H-benzimidazol-2-amine] | – | 7 µM
CC(C)Nc1nc2ccc(C(F)(F)F)cc2n1[C@@H]1O[C@H](C)[C@@H](O)[C@H]1O [Example 46, 6-trifluoromethyl-1-(5-Deoxy-beta-D-ribofuranosyl)-N-(1-methylethyl)-1H-benzimidazol-2-amine] | – | 6.1 µM
CC(C)Nc1nc2ccc(Cl)cc2n1[C@@H]1O[C@H](C)[C@@H](O)[C@H]1O [Example 50, 6-Chloro-1-(5-deoxy-β-D-ribofuranosyl)-N-(1-methylethyl)-1H-benzimidazol-2-amine] | – | 7 µM
C[C@H]1O[C@@H](n2c(NC3CC3)nc3cc(Cl)c(Cl)cc32)[C@H](O)[C@@H]1O [Example 59, 5,6-Dichloro-1-(5-deoxy-beta-D-ribofuranosyl)-N-(cyclopropyl)-1H-benzimidazol-2-amine] | – | 1.1 µM
CC(=O)O[C@@H]1[C@H](OC(C)=O)[C@@H](C)O[C@H]1n1c(Cl)nc2c(Cl)c(Cl)c(Cl)cc21 [Example 68, 2,4,5,6-Tetrachloro-1-(2,3-di-O-acetyl-5-deoxy-beta-D-ribofuranosyl)-1H-benzimidazole] | 126 to 127 °C | –
